Consider twelve compounds from ChEMBL document CHEMBL3233007, “Prenylated coumarins: natural phosphodiesterase-4 inhibitors from Toddalia asiatica” (J Nat Prod, 2014).

Molecules are shown by their SMILES.

In this assay the target is 3',5'-cyclic-AMP phosphodiesterase 4D (Homo sapiens, UniProt Q08499). Nature of the assay: Inhibition of human PDE4D2 catalytic domain (86 to 413aa) expressed in Escherichia coli strain BL21 after 15 mins by liquid scintillation counting in presence of [3H]-cAMP.
Sequence of 3',5'-cyclic-AMP phosphodiesterase 4D (Q08499 whole entry, the tested form may be a part): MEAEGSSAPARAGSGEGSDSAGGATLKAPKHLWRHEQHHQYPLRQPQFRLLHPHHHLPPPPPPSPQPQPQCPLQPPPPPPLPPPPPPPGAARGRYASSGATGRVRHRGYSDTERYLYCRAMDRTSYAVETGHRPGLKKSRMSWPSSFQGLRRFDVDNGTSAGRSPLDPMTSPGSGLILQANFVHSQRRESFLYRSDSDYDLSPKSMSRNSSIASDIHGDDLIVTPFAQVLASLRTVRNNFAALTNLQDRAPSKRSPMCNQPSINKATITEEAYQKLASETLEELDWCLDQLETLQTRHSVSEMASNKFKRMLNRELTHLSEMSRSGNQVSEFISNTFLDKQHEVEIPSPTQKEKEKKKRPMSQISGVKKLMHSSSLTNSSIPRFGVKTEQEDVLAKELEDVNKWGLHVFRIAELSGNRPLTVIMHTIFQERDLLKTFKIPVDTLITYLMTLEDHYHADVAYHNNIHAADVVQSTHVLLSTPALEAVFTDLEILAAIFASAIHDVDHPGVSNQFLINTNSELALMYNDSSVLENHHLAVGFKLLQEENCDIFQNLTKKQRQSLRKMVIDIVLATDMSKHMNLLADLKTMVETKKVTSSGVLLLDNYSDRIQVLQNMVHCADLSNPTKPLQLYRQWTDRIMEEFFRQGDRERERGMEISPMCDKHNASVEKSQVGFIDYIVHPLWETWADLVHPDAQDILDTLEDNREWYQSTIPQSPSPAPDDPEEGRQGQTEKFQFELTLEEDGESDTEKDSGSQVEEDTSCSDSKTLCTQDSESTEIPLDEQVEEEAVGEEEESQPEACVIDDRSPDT
As a reminder, the IC50 is the concentration needed to halve the response being measured. Regarding `COc1cc(O)c(/C=C/C(=O)O[C@@H](Cc2c(OC)cc3oc(=O)ccc3c2OC)C(C)(C)O)c(OC)c1CC=C(C)C`, the half-inhibitory concentration (IC50) turned out to be 7.81 µM. Next, `COc1cc(OC)c2ccc(=O)oc2c1CCC(C)C`: 10.2 µM; `COc1cc(OC)c2ccc(=O)oc2c1/C=C/[C@H]1C[C@@H](C=C(C)C)c2c(c3ccccc3n(C)c2=O)O1`: 0.14 µM; `CC1(C)C=Cc2c(c(O)cc3ccc(=O)oc23)O1`: 2.38 µM. Regarding `COC1=CC(=O)c2cc(C)cc(-c3c(OC)cc(OC)c4ccc(=O)oc34)c2C1=O`, the IC50 was determined as 5.51 µM. For the compound `COc1cc2oc(=O)ccc2c(OC)c1CC=C(C)C`, the IC50 came to 9.98 µM. Under `COc1cc2c(c3oc(=O)ccc13)C=CC(C)(C)O2` stands 1.87 µM. Next, `COc1cc2oc(=O)ccc2c(OC)c1C[C@H](OC(=O)[C@]1(O)C[C@@H](O)[C@@H](O)[C@H](OC(=O)/C=C/c2ccc(O)c(O)c2)C1)C(C)(C)O`: 16.7 µM. As to `COc1cc2ccc(=O)oc2c2c1OC(C)(C)CC2`, the concentration for half-maximal inhibition (IC50) is 1.53 µM.

As for `COc1cc2c(c3oc(=O)ccc13)CCC(C)(C)O2`, the concentration for half-maximal inhibition (IC50) was determined as 2.2 µM.

In the case of `COc1cc2oc(=O)ccc2c(OC)c1CCC(C)C`, the half-maximal inhibitory concentration (IC50) was determined as 11.5 µM. Take `COc1cc(OC)c2ccc(=O)oc2c1CC=C(C)C`: the IC50 turned out to be 6.82 µM.
